Source: patent publication US10617119B1, “Piscicide composition” (priority 2018, dated 2020)

System: Koi
Assay: Feeding of toxic pellets to Koi in aquatic tanks (consumption, mortality)
Type: in vivo
Settings: juvenile Koi

| SMILES | mortality / toxicity |
| --- | --- |
| CC(=O)Nc1ccc(O)cc1 [acetaminophen] | None of the Koi died |
| [O]=[Ca] [calcium oxide] | did not kill Koi |
